pEC50: −log10 of the molar value. Where two headings read alike, the source gives them in different places.
Columns and labels:
[1] = Pharmacokinetic determination in SD rats; conditions: rat, in vivo, po, male SD rats, p.o. 5 mg/kg; for MRT inf: read-out: MRT 0-∞
Method: To investigate the pharmacokinetic behaviours of the example compounds in both plasma and brain of SD rats (test animals) following oral administration at a dose of 5 mg/kg.
(§1) 2.1 Test drugs: The example compounds of the present invention, made in house.
2.2 Test animals: SD Rat, male.
24 SD Rats, male; p.o. respectively at a dose of 5 mg/kg and an administration volume of 10 mL/kg after the rats were fasted overnight.
(§2) Formulation of a drug for oral administration: 0.5% CMC-Na (1% Tween 80).
(§3) 0.50 g of sodium carboxymethyl cellulose (CMC-Na, viscosity: 800-1200 Cps) was weighed and dissolved in 99 mL of purified water, and 1 ml of Tween 80 was added. The components were mixed thoroughly under stirring to form a clear solution.
The example compound was weighed into a 100 mL glass vial, 80 mL of the solution was added, and the mixture was subjected to ultrasound treatment for 10 minutes to obtain a homogeneous suspension with a concentration of 0.5 mg/mL.
(§4) After the test animals were euthanised by CO2, blood samples were collected from the heart and brain tissues were harvested at 0.25 h, 0.5 h, 1 h, 2 h, 4 h, 6 h, 8 h, and 24 h post-dose. Blood was placed in EDTA-2K tubes, and centrifuged at 6000 rpm for 6 min at 4°C to separate the plasma. Brain tissues were rinsed with pre-cold PBS, blotted dry, and weighed. Both plasma and brain samples were stored at -80°C. The animals were fed 4 h after administration.
(§5) • 3) 40 uL of plasma sample was precipitated with 160 uL of acetonitrile, mixed, and centrifuged at 3500 × g for 5-20 min. Brain tissues were diluted, homogenised and centrifuged. • 4) 100 uL of the treated supernatant solution was taken for LC/MS/MS analysis to determine the concentration of the test compounds.
(§6) • Liquid phase conditions: Shimadzu LC-20AD pump • Mass spectrometry conditions: AB Sciex API 4000 mass spectrometer • Chromatographic column: Phenomenex Gemiu 5 um C18 50 × 4.6 mm • Mobile phase: solution A: 0.1% formic acid in water, solution B: acetonitrile • Flow rate: 0.8 mL/min • Elution time: 0-4.0 min, with eluents as follows:
(§7) The main pharmacokinetic parameters were calculated using WinNonlin 8.1.

M4 receptor = molecular target: T1, M4 receptor (Homo sapiens, UniProt P08173); test: Calcium flux (FLIPR) potentiation assay in cells stably expressing M4 receptor; format: cell-based
T1 construct: expressed in transfected cells
T1 sequence (P08173 1-479): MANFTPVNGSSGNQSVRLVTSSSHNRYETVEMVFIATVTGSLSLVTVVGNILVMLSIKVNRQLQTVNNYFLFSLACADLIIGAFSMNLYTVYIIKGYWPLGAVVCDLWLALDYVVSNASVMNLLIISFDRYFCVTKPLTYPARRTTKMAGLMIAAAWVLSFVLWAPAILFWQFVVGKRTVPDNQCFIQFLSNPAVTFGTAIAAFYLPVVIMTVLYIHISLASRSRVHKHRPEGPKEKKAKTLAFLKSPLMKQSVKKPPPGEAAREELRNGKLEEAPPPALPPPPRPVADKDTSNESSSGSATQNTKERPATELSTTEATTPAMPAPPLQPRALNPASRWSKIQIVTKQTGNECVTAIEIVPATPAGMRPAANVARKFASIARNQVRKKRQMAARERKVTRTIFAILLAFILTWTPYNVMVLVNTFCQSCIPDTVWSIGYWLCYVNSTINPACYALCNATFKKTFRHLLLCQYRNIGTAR
Text: Test example 1. Determination of the effect of the compounds of the present invention on calcium current in cells stably expressing M1-M5 receptors
To detect the potentiating effect of compounds on calcium flux activity in CHO-K1/human M1/3/5 and CHO-K1/Gα15 M2/4 cells.
384-well assay plate, 384-well plate, FLIPR Tip, FLIPR Penta plate reader, Dispendix non-contact nanoliter dispensing system (liquid handling workstation), liquid handler.
Ham's F-12 Nutrient Mix, foetal bovine serum, P/S (Gibco: 15140122), HBSS (Gibco: 14025076), HEPES (Gibco: 15630080), FLIPR calcium 6 assay kit (Molecular Devices: R8190), Probenecid (PBA) (Invitrogen: P36400), Acetylcholine chloride (Sigma: A6625-25G) Complete culture medium: DMEM + 10% FBS + 1X P/S; Cell seeding medium: DMEM + 10% FBS + 1X PS; Assay buffer 1: 1X HBSS + 20 mM HEPES +2.5 mM Probenecid; Assay buffer 2: 1X HBSS + 20 mM HEPES; Cell line: CHO-K1/M1; CHO-K1/M2/Gα15; CHO-K1/M3; CHO-K1/M4/Gα15; CHO-K1/M5.
FLIPR calcium 6 assay kit: Component A was dissolved in Assay buffer 1, and the mixture was shaken for 1-2 min, sub-packaged and stored at -20°C.
• 1) CHO-K1/M1; CHO-K1/M2/Gα15; CHO-K1/M3; CHO-K1/M4/Gα15; and CHO-K1/M5 cell lines were cultured separately in complete culture medium at 37°C, 5% CO2 to 70%-90% confluency. • 2) The cells were digested and resuspended in cell seeding medium, 5,000 cells/well/20 µL were seeded into a 384-well cell culture plate, and the cells were cultured at 37°C, 5% CO2 for 24 hours. • 3) The cell culture plate was taken out of the CO2 incubator and equilibrated at room temperature for 10 minutes. • 4) Component A solution was removed and allowed to equilibrate to room temperature. 20 µL of Component A solution was added to each well of the cell culture plate, and incubated at room temperature in the dark for 1 hour. • 5) Acetylcholine chloride (ACh), a muscarinic receptor agonist, was prepared in Assay buffer 2 at EC20/EC100 concentrations; subsequently, 30 µL of the prepared muscarinic receptor agonist was added to a 384-well agonist plate (PE: 6008590) using a Multidrop Combi; the working solutions of the positive control compound and the test compound were serially diluted at a 3.16-fold gradient and dispensed (450 nL) into a 384-well compound plate (PE: 6008590) using the Dispendix liquid handling workstation; 30 µL of Assay buffer 2 was added to the 384-well compound plate (PE: 6008590) using the Multidrop Combi; the positive control compound and the test compound were diluted to 6X, mixed by shaking, and placed at room temperature until use. • 6) 10 µL of the diluted 6X compound was added to the assay wells of the corresponding 384-well cell plate using the FLIPR Penta, followed by a 2-minute incubation. • 7) 10 µL of the prepared muscarinic receptor agonist was added to the assay wells of the corresponding 384-well cell plate using the FLIPR Penta, with simultaneous data acquisition.
FLIPR Penta was used to read and collect the fluorescence signal value (RFU). The maximum RFU value was used to calculate the percent activation data based on the readings of the Low control (DMSO control group) and High control (ACh EC100) experimental groups {% activation rate = (RFUsample - RFUlow control) / (RFUhigh control - RFUlow control)×100}. The test compound was diluted 3.16X in the reaction system to generate 11 concentration points ranging from 30 µM to […].

[2] = Pharmacokinetic determination in Balb/c mice; conditions: mouse, in vivo, po, male Balb/c mice, p.o. 5 mg/kg
Method: To investigate the pharmacokinetic behaviours of the example compounds in both plasma and brain of Balb/c mice (test animals) following oral administration at a dose of 5 mg/kg.
as §1
2.2 Test animals: Balb/c Mouse, male.
24 Balb/c mice, male; p.o. respectively at a dose of 5 mg/kg and an administration volume of 10 mL/kg after the mice were fasted overnight.
as §2, §3
The example compound was weighed into a 4-mL glass vial, 2.4 mL of the solution was added, and the mixture was subjected to ultrasound treatment for 10 minutes to obtain a homogeneous suspension with a concentration of 0.5 mg/mL.
as §4
as §5, with “1)” for “3)”, “2)” for “4)”
as §6, §7

[3] = CHO-K1/M4/Gα15 cells, potentiation of acetylcholine (EC20) calcium flux, read-out: M4 FLIPR EC50

SMILES | AUC(0-inf) [1] | Cmax [1] | Tmax [1] | MRT inf [1] | pEC50 (M4 receptor; [3]) | AUC(0-inf) [2] | Cmax [2] | Tmax [2] | MRT inf ([2]; read-out: MRT 0-∞) | pEC50 (M4 receptor)
Cc1c2c(c3ccnn3c1C)CN(C(=O)CC1CN(c3ccnc(C(F)(F)F)c3)C1)C2 [Example 76, 1-(4,5-Dimethyl-2,3-dihydro-1H-pyrrolo[4,3-c]pyrazolo[1,5-a]pyridin-2-yl)-2-{1-[2-(trifluoromethyl)pyridin-4-yl]azetidin-3-yl}ethan-1-one] | 6150 ng·h/mL | 1090 ng/mL | 2 h | 3.9 h | 7.39 |  |  |  |  | 
Cc1c2c(c3ncnn3c1C)CN(C(=O)OC1CN(c3ccnc(C(F)F)c3)C1)C2 [Example 122] | 34800 ng·h/mL | 3110 ng/mL | 2 h | 5.8 h |  | 6130 ng·h/mL | 1550 ng/mL | 0.5 h | 2.6 h | 
Cc1c2c(c3nccn3c1C)CN(C(=O)OC1CN(c3ccnc(C(F)F)c3)C1)C2 [Example 141] | 8540 ng·h/mL | 3210 ng/mL | 0.5 h | 1.7 h | 7.41 |  |  |  |  | 
COc1cc(N2CC(CC(=O)N3Cc4c(C)c(C)n5ncnc5c4C3)C2)c(Cl)cn1 [Example 147] | 3260 ng·h/mL | 914 ng/mL | 1 h | 2.4 h | 7.39 |  |  |  |  | 
COc1cc(N2CC(OC(=O)N3Cc4c(C)c(C)n5ncnc5c4C3)C2)ccn1 [Example 182] | 7050 ng·h/mL | 1710 ng/mL | 1 h | 2.8 h | 7.43 |  |  |  |  | 
COc1cc(N2CC(CC(=O)N3Cc4c(C)c(C)n5ncnc5c4C3)C2)ccn1 [Example 236] | 6710 ng·h/mL | 1090 ng/mL | 1.5 h | 4.6 h | 7.31 |  |  |  |  | 
Cc1c2c(c3ncnn3c1C)CN(C(=O)CC1CN(c3ccc4c(cnn4C)c3)C1)C2 [Example 269] | 3640 ng·h/mL | 1330 ng/mL | 0.83 h | 2 h | 7.06 |  |  |  |  | 
CCn1ncc2cc(N3CC(CC(=O)N4Cc5c(C)c(C)n6ncnc6c5C4)C3)ccc21 [Example 307] | 5300 ng·h/mL | 2110 ng/mL | 0.75 h | 2.02 h |  |  |  |  |  | 7.77
Cc1cc2ncnn2c2c1CN(C(=O)CC1CN(c3ncc(C(F)(F)F)cn3)C1)C2 [Example 331] | 10700 ng·h/mL | 944 ng/mL | 2 h | 6.8 h |  |  |  |  |  | 7.00

Further compounds by rising pEC50 (M4 receptor; [3]), results first:

AUC(0-inf) [1] | Cmax [1] | Tmax [1] | MRT inf [1] | pEC50 (M4 receptor; [3]) | AUC(0-inf) [2] | Cmax [2] | Tmax [2] | MRT inf ([2]; read-out: MRT 0-∞) | SMILES | pEC50 (M4 receptor)
11400 ng·h/mL | 1460 ng/mL | 1 h | 5.02 h | 7.49 |  |  |  |  | Cc1c2c(n3ncnc3c1Cl)CN(C(=O)CC1CN(c3ncc(F)cn3)C1)C2 [Example 346, 1-(4-Chloro-5-methyl-6,8-dihydro-7H-pyrrolo[3,4-e][1,2,4]triazolo[1,5-a]pyridin-7-yl)-2-(1-(5-fluoropyrimidin-2-yl)azetidin-3-yl)ethan-1-one] | 
16100 ng·h/mL | 2840 ng/mL | 2 h | 3.9 h | 7.51 |  |  |  |  | Cc1c2c(c3ncnn3c1C)CN(C(=O)OC1CN(c3ccc4nc(C(F)F)cn4n3)C1)C2 [Example 191] | 
4080 ng·h/mL | 2380 ng/mL | 0.5 h | 1.32 h | 7.57 |  |  |  |  | CCOc1ccc(N2CC(CC(=O)N3Cc4c(C)c(C)n5ncnc5c4C3)C2)cn1 [Example 304, 1-(5,6-Dimethyl-7,9-dihydro-8H-pyrrolo[3,4-c][1,2,4]triazolo[1,5-a]pyridin-8-yl)-2-(1-(6-ethoxypyridin-3-yl)azetidin-3-yl)ethan-1-one] | 
12000 ng·h/mL | 3500 ng/mL | 0.83 h | 2.5 h | 7.63 |  |  |  |  | Cc1c2c(c3ncnn3c1C)CN(C(=O)CC1CN(c3cnc4c(c3)COC4)C1)C2 [Example 270] | 
3170 ng·h/mL | 967 ng/mL | 1 h | 2.6 h | 7.69 |  |  |  |  | Cc1c2c(c3ncnn3c1C)CN(C(=O)CC1CN(c3ccnc(OC4CC4)c3)C1)C2 [Example 188] | 
26700 ng·h/mL | 2140 ng/mL | 4 h | 11.2 h | 7.77 |  |  |  |  | Cc1c2c(n3ncnc3c1Cl)CN(C(=O)CC1CN(c3ncc(C(F)(F)F)cn3)C1)C2 [Example 317, 1-(4-Chloro-5-methyl-6,8-dihydro-7H-pyrrolo[3,4-e][1,24]triazolo[1,5-a]pyridin-7-yl)-2-(1-(5-(trifluoromethyl)pyrimidin-2-yl)azetidin-3-yl)ethan-1-one] | 
3220 ng·h/mL | 1040 ng/mL | 1 h | 2.6 h | 7.88 |  |  |  |  | Cc1c2c(c3ncnn3c1C)CN(C(=O)CC1CN(c3ccc4nc(C(F)F)cn4n3)C1)C2 [Example 189] | 
